Experimental data reported in patent publication US20150148256A1, “BIOLUMINESCENCE IMAGING-BASED SCREENING ASSAY AND INHIBITORS OF ABCG2” (THE JOHNS HOPKINS UNIVERSITY, priority 2008, published 2015).
Structures can show the parent of a compound that is named as a salt. Where two headings read alike, the source gives them in different places.

Key:
[1] = target: T1, ABCG2 (Homo sapiens, UniProt Q9UNQ0); parameters: expressed in transfected cells; host or cells: HEK293; conditions: read-out: IC50, ability to inhibit ATPase, cited from earlier work
T1 sequence (Q9UNQ0 1-655): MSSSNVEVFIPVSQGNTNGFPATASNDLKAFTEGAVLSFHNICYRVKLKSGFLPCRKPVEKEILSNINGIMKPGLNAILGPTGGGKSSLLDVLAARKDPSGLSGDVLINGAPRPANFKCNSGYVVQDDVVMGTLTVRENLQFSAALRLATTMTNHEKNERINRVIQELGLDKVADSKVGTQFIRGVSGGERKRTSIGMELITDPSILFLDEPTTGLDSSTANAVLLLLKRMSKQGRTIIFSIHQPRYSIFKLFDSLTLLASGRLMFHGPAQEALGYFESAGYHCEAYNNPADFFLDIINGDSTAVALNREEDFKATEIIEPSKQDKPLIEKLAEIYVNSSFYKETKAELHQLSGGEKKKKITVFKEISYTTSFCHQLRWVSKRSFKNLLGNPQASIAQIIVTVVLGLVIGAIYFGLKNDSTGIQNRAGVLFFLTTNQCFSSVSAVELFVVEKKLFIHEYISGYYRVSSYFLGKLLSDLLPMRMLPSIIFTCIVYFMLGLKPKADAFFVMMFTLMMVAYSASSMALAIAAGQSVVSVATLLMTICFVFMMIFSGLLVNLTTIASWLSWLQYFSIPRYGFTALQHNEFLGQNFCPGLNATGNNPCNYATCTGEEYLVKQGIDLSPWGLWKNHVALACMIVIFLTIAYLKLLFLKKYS

[2] = target: T1, ABCG2; parameters: expressed in transfected cells; host or cells: HEK293; conditions: cited from earlier work
[3] = target: T1, ABCG2; parameters: expressed in transfected cells; host or cells: HEK293; conditions: reference (23); read-out: IC50, pheophorbide A fluorescent dye uptake assay; cited from earlier work
[4] = target: T1, ABCG2; assay: Bioluminescence imaging (BLI) assay in HEK293/ABCG2/fLuc cells
Outline: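 Light output from HEK293/ABCG2/fLuc cells plated at 4×10^4 per well, treated with compounds, imaged every 5 min for ~1 h. Values are signal-to-background ratios versus solvent control at 40 min, indicating ABCG2 inhibition. Dose range 0.001 μM-100 μM with 50 μg/mL D-luciferin for selected compounds.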

[5] = system: ABCG2-overexpressing NCI-H460/MX20 cells
[6] = system: NCI-H460 parent line; assay: MTX survival of parent NCI-H460 cells (XTT); format: cell-based, human; conditions: three days
[7] = target: T2, MRP1 (Multiple Drug Resistance Protein 1) (Homo sapiens, UniProt P33527); assay: Colchicine resensitization assay in MDCKII cells overexpressing MRP1; format: cell-based; conditions: for MRP1 inhibition: even at relatively high concentration (30 μM)
T2 construct: expressed in transfected cells; host or cells: MDCKII
T2 sequence (P33527 whole entry): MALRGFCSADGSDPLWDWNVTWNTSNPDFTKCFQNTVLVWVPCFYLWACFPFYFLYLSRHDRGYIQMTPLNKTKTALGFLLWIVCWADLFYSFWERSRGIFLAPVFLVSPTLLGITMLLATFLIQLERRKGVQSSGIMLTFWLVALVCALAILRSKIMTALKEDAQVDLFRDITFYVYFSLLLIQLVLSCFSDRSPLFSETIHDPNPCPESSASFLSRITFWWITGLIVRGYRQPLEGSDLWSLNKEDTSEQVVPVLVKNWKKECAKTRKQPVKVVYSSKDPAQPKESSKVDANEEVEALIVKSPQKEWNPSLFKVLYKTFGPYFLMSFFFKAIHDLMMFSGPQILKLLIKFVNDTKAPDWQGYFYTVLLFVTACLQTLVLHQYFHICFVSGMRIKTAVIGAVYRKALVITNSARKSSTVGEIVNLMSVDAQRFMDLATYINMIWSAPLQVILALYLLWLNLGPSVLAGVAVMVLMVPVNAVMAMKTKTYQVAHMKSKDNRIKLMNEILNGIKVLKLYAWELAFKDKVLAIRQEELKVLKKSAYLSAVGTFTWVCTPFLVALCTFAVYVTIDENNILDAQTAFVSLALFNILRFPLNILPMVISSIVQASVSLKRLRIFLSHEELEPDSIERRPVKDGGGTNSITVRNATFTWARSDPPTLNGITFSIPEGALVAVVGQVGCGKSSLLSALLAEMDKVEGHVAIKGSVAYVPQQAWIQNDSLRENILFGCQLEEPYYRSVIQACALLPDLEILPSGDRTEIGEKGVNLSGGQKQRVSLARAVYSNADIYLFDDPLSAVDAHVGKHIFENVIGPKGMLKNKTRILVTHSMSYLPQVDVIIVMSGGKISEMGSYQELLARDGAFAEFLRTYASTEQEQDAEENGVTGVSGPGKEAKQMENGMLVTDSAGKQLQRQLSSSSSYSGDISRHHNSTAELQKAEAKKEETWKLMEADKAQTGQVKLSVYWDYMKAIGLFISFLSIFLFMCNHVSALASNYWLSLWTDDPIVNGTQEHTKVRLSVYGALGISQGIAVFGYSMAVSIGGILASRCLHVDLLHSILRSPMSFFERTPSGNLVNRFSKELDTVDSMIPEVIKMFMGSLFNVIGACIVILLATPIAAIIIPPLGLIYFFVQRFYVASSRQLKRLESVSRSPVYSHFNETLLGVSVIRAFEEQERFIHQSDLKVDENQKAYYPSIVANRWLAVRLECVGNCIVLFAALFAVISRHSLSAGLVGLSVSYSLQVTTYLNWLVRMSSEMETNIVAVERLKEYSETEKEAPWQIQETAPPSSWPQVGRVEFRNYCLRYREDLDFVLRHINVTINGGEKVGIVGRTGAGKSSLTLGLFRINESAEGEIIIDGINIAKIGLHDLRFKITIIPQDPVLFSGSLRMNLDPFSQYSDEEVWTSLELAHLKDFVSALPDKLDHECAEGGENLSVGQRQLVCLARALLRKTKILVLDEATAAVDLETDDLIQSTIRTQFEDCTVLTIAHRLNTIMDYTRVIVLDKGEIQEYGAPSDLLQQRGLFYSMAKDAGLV
Description: The ABC transporter-inhibiting ability of the potential inhibitors identified were further tested by evaluating their ability to resensitize ABCG2-overexpressing NCI-H460/MX20 cells to MTX, or MDCKII cells overexpressing Pgp or MRP1, to Col. Cells were plated in 96-well plates at 1×10^4 per well and allowed to attach. […] Colchicine was added at 1 μM for MDCKII/Pgp cells and 0.3 μM for MDCKII/MRP1 cells. […] In brief, 1 mg/ml XTT (Polysciences, Warrington, Pa.) was mixed with 0.025 mM PMS (Sigma), and 50 μl of the mixture was added to each well and incubated for 4 hours at 37° C. After the plates were mixed on a plate shaker, absorbance at 450 nm was measured. All results were normalized to a percentage of absorbance obtained in controls.
MDCKII cells overexpressing Pgp or MRP1 were incubated for two days in medium containing 1 μM (for Pgp) or 0.3 μM (for MRP1) Col and increasing concentrations of each ABCG2 inhibitor.

[8] = target: T1, ABCG2; conditions: 1 h, 20 μM
[9] = target: T1, ABCG2; assay: BODIPY-prazosin uptake assay (flow cytometry) in HEK293/ABCG2 cells; conditions: compound 20 μM; for BP (BODIPY-prazosin dye uptake assay): 1 h; for BODIPY-prazosin assay result: flow cytometry
[10] = compound 1 μM with 15 μM MTX, two days
[11] = Table 2, HEK293/ABCG2/fLuc cells, compound approximately 17 μM, ~50 μg/mL D-luciferin, 40 min time point
[12] = Table 4, approximately 17 μM, 40 min time point
[13] = compound 20 μM, H460/MX20 cells

COc1ccc2c3c([nH]c2c1)[C@H](C=C(C)C)N1C(=O)[C@@H]2CCCN2C(=O)[C@@H]1C3 [FTC, Fumitremorgin C]
IC50 ([1]; Ozvegy et al. (21)): 1.3 µM
IC50 ([1]; Ozvegy et al. (22)): 0.4 µM
IC50 ([1]; Robey et al. (13)): 1 µM
IC50 ([2]; literature, read-out: IC50 values reported in literature): 0.3 to 1.3 µM
concentration at which the plateau of the ABCG2-inhibiting effect is reached ([2]; previous reports): 10 µM
IC50 [3]: 0.8 µM
IC50 ([4]; read-out: IC50 as an ABCG2 inhibitor (BLI), same assay, using the 30 min data): 6.6 µM
resensitization of H460/MX20 cells to MTX ([5]; FTC positive control (10 μM), MTX 15 or 30 μM, three days): restored the sensitivity of H460/MX20 cells to MTX and significantly reduced their survival rate

O=C1c2c(O)ccc(O)c2C(=O)c2c(NCCNCCO)ccc(NCCNCCO)c21 [MTX, mitoxantrone]
survival of parent cells ([6]; 15 μM MTX alone): < 20%
survival of parent cells ([6]; 30 μM MTX alone): ~9%
survival of H460/MX20 cells ([5]; 15 μM MTX alone, three days): 80%
survival of H460/MX20 cells ([5]; 30 μM MTX alone, three days): ~40%

CC(=O)c1ccc2c(c1)N(CCCN(C)C)c1ccccc1S2 [acepromazine]
Fold (BLI enhancement), previously unknown compounds ([4]; human, 40 min, 17 μM): 6.2 fold
Fold (BLI enhancement, S/B ratio over control) ([4]; human, 40 min, 17 μM): 6.2 fold
MTX (mitoxantrone resensitization assay) ([5]; H460/MX20 cells with MTX): Y

COc1cc(N)c(Cl)cc1C(=O)NC1CCN(Cc2ccccc2)CC1 [clebopride maleate]
MRP1 inhibition [7]: weak
IC50 [4]: 8.2 µM
Fold (BLI enhancement), previously unknown compounds ([4]; human, 40 min, 17 μM): 7.9 fold
Fold (BLI enhancement, S/B ratio over control) ([4]; human, 40 min, 17 μM): 7.9 fold
MTX (mitoxantrone resensitization assay) ([5]; H460/MX20 cells with MTX): Y

CCN(CC)CCOc1ccc(C(=C(Cl)c2ccccc2)c2ccccc2)cc1 [clomiphene citrate]
Fold (BLI enhancement), previously unknown compounds ([4]; human, 40 min, 17 μM): 6.7 fold
Fold (BLI enhancement, S/B ratio over control) ([4]; human, 40 min, 17 μM): 6.7 fold
resensitization of H460/MX20 cells to MTX [5, 10]: showed resensitization of H460/MX20 cells to MTX

C[C@H]1O[C@@H](O[C@H]2[C@@H](O)C[C@H](O[C@H]3[C@@H](O)C[C@H](O[C@H]4CC[C@@]5(C)[C@H](CC[C@@H]6[C@@H]5CC[C@]5(C)[C@@H](C7=CC(=O)OC7)CC[C@]65O)C4)O[C@@H]3C)O[C@@H]2C)C[C@H](O)[C@@H]1O [digitoxin]
BLI signal enhancement at lower concentrations [4]: enhance BLI signal minimally
Fold (BLI enhancement), previously unknown compounds ([4]; human): 5.7 fold
Fold (BLI enhancement, S/B ratio over control) ([4]; human): 5.7 fold
reduction of survival rate of H460/MX20 cells [5]: did not reduce the survival rate of H460/MX20 cells significantly

Cc1c(-c2ccccc2)oc2c(C(=O)OCCN3CCCCC3)cccc2c1=O [flavoxate hydrochloride]
MRP1 inhibition [7]: weak
IC50 [4]: 20 µM
Fold (BLI enhancement), previously unknown compounds ([4]; human, 40 min, 17 μM): 11.2 fold
Fold (BLI enhancement, S/B ratio over control) ([4]; human, 40 min, 17 μM): 11.2 fold
MTX (mitoxantrone resensitization assay) ([5]; H460/MX20 cells with MTX): Y

CC(C)C(=O)Nc1ccc([N+](=O)[O-])c(C(F)(F)F)c1 [flutamide]
Fold (BLI enhancement), previously unknown compounds ([4]; human, 40 min, 17 μM): 6.1 fold
Fold (BLI enhancement, S/B ratio over control) ([4]; human, 40 min, 17 μM): 6.1 fold
MTX (mitoxantrone resensitization assay) ([5]; H460/MX20 cells with MTX): Y

O=C(OCC(O)CO)c1ccccc1Nc1ccnc2cc(Cl)ccc12 (stereo not drawn) [glafenine]
concentration from which MDCKII/MRP1 cells are resensitized to Col ([7]; 0.3 μM Col, two days): 10 µM
IC50 [4]: 3.2 µM
BLI signal enhancement ([4]; human, 40 min, 17 μM): ~20 fold
Fold (BLI enhancement), previously unknown compounds ([4]; human, 40 min, 17 μM): 20.6 fold
Fold (BLI enhancement, S/B ratio over control) ([4]; human, 40 min, 17 μM): 20.6 fold
MTX (mitoxantrone resensitization assay) [5]: Y
concentration that effectively resensitizes H460/MX20 cells to MTX [5]: ≤ 0.001 µM
relative potency in dose-dependent MTX resensitization [5]: more potent ABCG2 inhibitor than FTC, doxazosin mesylate, clebopride maleate, and flavoxate hydrochloride
survival of H460/MX20 cells [5]: 13%

CC(C)(C(=O)c1cccnc1)c1cccnc1 [metyrapone, 2-methyl-1,2-dipyridin-3-yl-propan-1-one]
Fold (BLI enhancement), previously unknown compounds ([4]; human, 40 min, 17 μM): 6.3 fold
Fold (BLI enhancement, S/B ratio over control) ([4]; human, 40 min, 17 μM): 6.3 fold
MTX (mitoxantrone resensitization assay) ([5]; H460/MX20 cells with MTX): Y

CCN(CC)CCCC(C)Nc1c2ccc(Cl)cc2nc2ccc(OC)cc12 (stereo not drawn) [quinacrine]
BODIPY-prazosin assay result [8]: confirmed as an ABCG2 inhibitor
Fold (BLI enhancement), previously unknown compounds ([4]; human, 40 min, 17 μM): 10.6 fold
Fold (BLI enhancement, S/B ratio over control) ([4]; human, 40 min, 17 μM): 10.6 fold
cytotoxicity in the MTX resensitization assay [5]: too cytotoxic to be tested

O=C(c1ccc(OCCN2CCCCC2)cc1)c1c(-c2ccc(O)cc2)sc2cc(O)ccc12 [raloxifene hydrochloride]
Fold (BLI enhancement), previously unknown compounds ([4]; human, 40 min, 17 μM): 5.4 fold
Fold (BLI enhancement, S/B ratio over control) ([4]; human, 40 min, 17 μM): 5.4 fold
MTX (mitoxantrone resensitization assay) ([5]; H460/MX20 cells with MTX): Y

Cc1cc2nc3c(=O)[nH]c(=O)nc-3n(C[C@H](O)[C@H](O)[C@H](O)CO)c2cc1C [riboflavin]
Fold (BLI enhancement), known compounds ([4]; human, 40 min, 17 μM): 5.4 fold
Fold (BLI enhancement, S/B ratio over control) ([4]; human, 40 min, 17 μM): 5.4 fold
MTX (mitoxantrone resensitization assay) ([5]; H460/MX20 cells with MTX): Y

C=C(C)[C@H]1Cc2c(ccc3c2O[C@@H]2COc4cc(OC)c(OC)cc4[C@@H]2C3=O)O1 [rotenone]
BP (BODIPY-prazosin dye uptake assay) [9]: Y
BODIPY-prazosin assay result [9]: positive
Fold (BLI enhancement), previously unknown compounds ([4]; human): 6.7 fold
Fold (BLI enhancement, S/B ratio over control) ([4]; human): 6.7 fold
MTX (mitoxantrone resensitization assay) [5]: Y

CCCCNc1c(C(=O)OCC)c(C)nc2c1cnn2CC [tracazolate]
Fold (BLI enhancement), previously unknown compounds ([4]; human, 40 min, 17 μM): 20 fold
Fold (BLI enhancement, S/B ratio over control) ([4]; human, 40 min, 17 μM): 20.0 fold
MTX (mitoxantrone resensitization assay) ([5]; H460/MX20 cells with MTX): Y

acetophenazine maleate
MTX (mitoxantrone resensitization assay) ([5]; H460/MX20 cells with MTX): Y

gramicidin
Fold (BLI enhancement, S/B ratio over control) [4, 11]: 6.9 fold
Fold (BLI enhancement), previously unknown compounds [4, 12]: 6.9 fold
resensitization of H460/MX20 cells to MTX [5, 10]: showed resensitization of H460/MX20 cells to MTX
cytotoxicity in the MTX resensitization assay [5, 13]: too cytotoxic to be tested

verteporfin
BP (BODIPY-prazosin dye uptake assay) [9]: N
BODIPY-prazosin assay result [9]: negative
Fold (BLI enhancement, S/B ratio over control) [4, 11]: 11.3 fold
Fold (BLI enhancement), previously unknown compounds [4, 12]: 11.3 fold
MTX (mitoxantrone resensitization assay) ([5]; H460/MX20 cells with MTX): Y
resensitization of H460/MX20 cells to MTX [5, 10]: showed resensitization of H460/MX20 cells to MTX
cytotoxicity in the MTX resensitization assay [5, 13]: too cytotoxic to be tested
cytotoxicity in the MTX resensitization assay ([5]; compound 20 μM, H460/MX20 cells, listed as Verteporfin): too cytotoxic to validate by MTX assay
